Data: patent US6583166B1, “Triazole compounds with dopamine-D3-receptor affinity” (Abbott Laboratories, priority 1999, dated 2003)

Biological target: T1, human D3-receptor (Homo sapiens, UniProt P35462)
T1 construct: host or cells: CCL 1,3 mouse fibroblasts
Assay: D3 binding test (125iodosulpiride displacement)
Conditions: cloned human D3 receptor in CCL 1,3 mouse fibroblast membranes; 0.1 nM 125iodosulpiride; read-out: Ki value for the binding toward the D3 receptor
Procedure: Cloned human D3-receptor-expressing CCL 1,3 mouse fibroblasts, obtainable from Res. Biochemicals Internat. One Strathmore Rd., Natick, Mass. 01760-2418 USA, were used for the binding studies.
The D3-expressing cells were multiplied in RPMI-1640 containing 10% fetal calf serum (GIBCO No. 041-32400 N); 100 U of penicillin/ml and 0.2% streptomycin (GIBO BRL, Gaithersburg, Md., USA). After 48 h, the cells were washed with PBS and incubated for 5 min with 0.05% trypsin-containing PBS. After that, the solution was neutralized with medium and the cells were collected by centrifuging at 300 g. In order to lyse the cells, the pellet was washed briefly with lysis buffer (5 mM Tris-HCl, pH 7.4, containing 10% glycerol) and after that incubated, at 4° C. for 30 min, at a concentration of 10^7 cells/ml of lysis buffer. […]
For the D3-receptor binding test, the membranes were suspended in incubation buffer (50 mM Tris-HCl, pH 7.4, containing 120 mM NaCl, 5 mM KC1, 2 mM CaCl2, 2 mM MgCl2, 10 μM quinolinol, 0.1% ascorbic acid and 0.1% BSA), at a concentration of approx. 10^6 cells/250 μl of test mixture, and incubated at 30° C. […] 0.1 nM ^125iodosulpiride in the presence and absence of the test substance. The nonspecific binding was determined using 10^−6 M spiperone. […]
The Ki values were determined by means of nonlinear regression analysis using the LIGAND program. […]

T1 sequence (P35462 whole entry): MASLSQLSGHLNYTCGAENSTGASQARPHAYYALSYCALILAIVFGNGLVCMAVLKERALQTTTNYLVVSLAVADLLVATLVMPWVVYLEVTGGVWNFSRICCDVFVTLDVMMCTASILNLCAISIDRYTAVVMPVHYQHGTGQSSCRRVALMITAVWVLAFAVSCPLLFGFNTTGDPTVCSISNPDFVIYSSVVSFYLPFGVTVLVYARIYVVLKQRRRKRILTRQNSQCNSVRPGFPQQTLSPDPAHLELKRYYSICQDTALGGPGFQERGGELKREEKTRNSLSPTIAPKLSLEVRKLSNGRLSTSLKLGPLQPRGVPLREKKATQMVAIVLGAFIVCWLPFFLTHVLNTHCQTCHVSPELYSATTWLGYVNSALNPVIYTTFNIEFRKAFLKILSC

Question: `Cn1c(SCCCN2CCC3c4c(Br)cccc4CCC32)nnc1-c1ccccc1` (mixture of isomers) [Example 1, (cis/trans) 9-Bromo-3-{3-[(4-methyl-5-phenyl-4H-1,2,4-triazol-3-yl)sulfanyl]propyl}-2,3,3a,4,5,9b-hexahydro-1H-benzo[e]indole] was tested. Which Ki did it give?
Answer: 50 nM
